According to US6737058B2, “Methods for inhibiting endothelial cell and fibrinogen mediated inflammation using fibrinogen specific antibodies” (The Scripps Research Institute, priority 1992, dated 2004):

Assays:
HUVEC [1] = assay: 125I-labelled fibrinogen binding to HUVEC monolayers, dose dependency; set-up: species or system human; settings: monolayers of unstimulated HUVEC, 22° C., 45 minutes, 2.5 mM CaCl2
Description: Fibrinogen was iodinated using the Iodogen™ method. Briefly, Iodogen™ was dissolved in dichloromethane for a final concentration of 1 μg/ml and 170 μl of dissolved Iodogen™ that was dried in the bottom of a glass tube. Fibrinogen, prepared in Example 1A, was resuspended in 0.055 M sodium citrate buffer, pH 7.4, for a final concentration of 5 μg/ml. Two hundred μl of dissolved fibrinogen solution was placed into the Iodogen™-coated tube with 700 μCi of carrier-free sodium iodide. The admixture was maintained on ice for 20 minutes with occasional agitation. To stop the iodination reaction, the admixture was removed from the tube and gel filtered on a […]™ G-25 coarse column (100×2.5). Fractions of iodinated fibrinogen were determined by trichloroacetic acid precipitable counts. The labelled fibrinogen produced was radiolabelled to a specific activity of 0.3 μCi/μg of protein. Labelled fibrinogen was used in the binding and inhibition of binding assays described herein at a concentration of 50 μg/ml whereas unlabelled fibrinogen was generally used at a concentration of 500 μg/ml. […]
The resultant admixtures were maintained at 22° C. for 45 minutes to allow for fibrinogen to bind to the plated HUVEC. […] The cells were then solubilized in 10% SDS and the radioactivity associated under the maintenance conditions was quantitated in a gamma counter.

HUVEC [2] = assay: Fibrinogen-mediated adhesion of 51Cr-labelled THP-1 cells to HUVEC; type: cell-based, human
Description: For these assays, HUVEC were plated in the medium described in Example 2A at a density of approximately 1-5×10^4 cells/well into flat-bottom microtiter wells of a 96 well tissue-culture treated plate. The cells were then washed in serum-free RPMI 1640 and further maintained with ^51-Chromium-labelled (^51Cr) THP-1 cell suspensions previously exposed to different concentrations of unlabelled fibrinogen or left untreated. To label THP-1 cells, serum-free suspensions of the cells at a concentration of 1×10^7 cells/ml were labelled with 0.5 mCi ^51Cr (Na2CrO4 having a specific activity of 487.4 mCi/mg, NEN Du Pont de Nemours) for 2 hours at 37° C. with incorporation of an average of 12 to 20 cpm/THP-1 cell. The labelled cells were then washed twice at room temperature with serum-free RPMI 1640 and resuspended in the same medium at a concentration of 5 ×10^5 cells/ml. The labelled cells were used in the assays within 2 hours from the labelling procedure. For the assays, the cells were pre-stimulated with 1 μM N-FMLP in the presence of 1 mM CaCl2 and […] PPack. The resultant N-FMLP-stimulated THP-1 cell suspensions were then separately admixed with the following: 1) Medium without any admixed fibrinogen as a control; 2) Fibrinogen at 1.2 mg/ml and at 2.5 mg/ml concentrations; and 3) Normal human plasma (NHP) diluted 1:2 and 1:50. Purified fibrinogen was prepared as described in Example 1. Fibrinogen was present in undiluted normal human plasma at the concentration of approximately 1-3 mg/ml. The resultant admixtures were maintained for 20 minutes at 22° C. to allow for the binding of fibrinogen, either purified or present in NHP, to the Mac-1 receptor on the surface of the THP-1 cells.
The resultant fibrinogen-bound THP-1 cells were then admixed to the washed immobilized HUVEC described above to allow for the binding of a non-Mac-1 receptor binding site on fibrinogen to the RGD-independent fibrinogen receptor on the surface of HUVEC, thereby resulting in the binding of THP-1 cells to HUVEC via a fibrinogen bridge. The admixtures were maintained at 37° C. to allow for adhesion. At selected time intervals between 1 to 60 minutes, the HUVEC monolayers were gently washed five times with serum-free RPMI 1640 to remove nonadherent or loosely adherent THP-1 cells to which fibrinogen was initially immobilized. The adherent cells were then solubilized in 10% SDS and the cell lysate was quantitated in a beta scintillation counter. Spontaneous ^51Cr release from THP-1 cells was always less than 2% during the adhesion assay. The number of specifically attached THP-1 cells was determined by dividing the cpm harvested by the cpm/cell.
To determine the effects that temperature has on the ability of fibrinogen to mediate the binding of ^51Cr-labelled THP-1 cells to monolayers of HUVEC, cell adhesion assays as described in Example 3B1) were performed at 22° C. and at 37° C. over the course of one hour. The assays were performed in an identical manner as described above with the exception that 500 μg/ml of fibrinogen was used instead of […]. The maximum binding of THP-1 cells to HUVEC at 22° C. was 7500 cells after 40 minutes. At 60 minutes, the binding decreased to 5000 cells. The data is significant in comparison to the approximately 2000 THP-1 cells attached in the absence of fibrinogen. However, at 37° C., approximately 20,000 THP-1 cells attached to HUVEC after 40 minutes against a background binding of approximately 5000 cells in the absence of fibrinogen. The binding of ^51Cr-labelled THP-1 cells to HUVEC, thus, is maximized at the physiologic temperature of 37° C. with physiologic concentrations of fibrinogen.

## fibrinogen: fibrinogen isolated from fresh plasma by cold ethanol fractionation, fibronectin-free
HUVEC [1]
  concentration at which 125I-labelled fibrinogen binds saturably: approximately 0.36 μM
HUVEC [2]; 500 μg/ml fibrinogen, 22° C., 40 minutes
  THP-1 cells bound to HUVEC, maximum: 7500 cells
HUVEC [2]; 500 μg/ml fibrinogen, 22° C., 60 minutes
  THP-1 cells bound to HUVEC: 5000 cells
HUVEC [2]; 500 μg/ml fibrinogen, 37° C., 40 minutes
  THP-1 cells attached to HUVEC: approximately 20,000 cells
HUVEC [2]; 500 μg/ml fibrinogen, 60 minutes, non-saturable
  THP-1 cells attached to HUVEC (parallel control), maximal: approximately 25,000 cells
HUVEC [2]; 1.2 mg/ml fibrinogen, 37° C., 60 minute time course
  THP-1 cells attached to HUVEC, maximum: 10,000 cells
HUVEC [2]; 2.5 mg/ml fibrinogen, 60 minutes, not saturated
  THP-1 cells attached to HUVEC: approximately 18,000 cells
